Measurements from the supplement of paper PMC10331698.
± gives the standard deviation of the averaged measurements.

Tests used:
Assay in all cases: level (log10 ratio to DMSO vehicle control); higher = higher biomarker level / cell amount than vehicle control
[1] = compound: OCCCC(F)(F)C(F)(F)C(F)(F)C(F)(F)C(F)(F)C(F)(F)C(F)(F)C(F)(F)F [3-(Perfluorooctyl)propanol]; details: 6700 nM; in DMSO
Procedure: (§1)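 BioMAP Diversity Plus panel of 12 human primary cell co-culture systems (3C, 4H, LPS, SAg, BT, BF4T, BE3C, CASM3C, HDF3CGF, KF3CT, MyoF, Mphg). Compounds were added 1 h before stimulation and left for 24 h (MyoF 48 h; BT 72 h for soluble read-outs or 6 d for IgG). Biomarkers were read by ELISA, cytotoxicity by SRB, PBMC viability and proliferation by Alamar Blue. Each well value was divided by the mean of 8 DMSO control wells on the same plate and log10 transformed; duplicate blinded samples were tested at 4 concentrations.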

[2] = compound: OCC(F)(F)C(F)(F)C(F)(F)C(F)(F)C(F)(F)C(F)(F)C(F)(F)C(F)(F)CO [1H,1H,10H,10H-Perfluorodecane-1,10-diol]; details: in DMSO
Procedure: as §1

[3] = compound: O=C(Cl)C(F)(F)C(F)(F)C(F)(F)C(=O)Cl [Hexafluoroglutaryl chloride]; details: in DMSO
Procedure: as §1

[4] = compound: FC(F)(F)C(F)(F)C(F)(F)C(F)(F)CCI [1H,1H,2H,2H-Perfluorohexyl iodide]; details: in DMSO
Procedure: as §1

[5] = compound: O=C(O)C(F)(F)C(F)(F)C(F)(F)C(F)(F)C(F)(F)C(F)(F)C(F)(F)F [Ammonium perfluorooctanoate]; details: in DMSO
Procedure: as §1

[6] = compound: C=C(C)C(=O)OCC(F)(F)C(F)(F)C(F)(F)F [2,2,3,3,4,4,4-Heptafluorobutyl methacrylate]; details: in DMSO
Procedure: as §1

[7] = compound: C=CC(=O)OCC(F)(F)C(F)(F)C(F)(F)C(F)(F)C(F)(F)C(F)(F)C(F)(F)C(F)F [1H,1H,9H-Perfluorononyl acrylate]; details: in DMSO
Procedure: as §1

| Test System | level (log10) [1] | level (log10) ([2]; 6700 nM) | level (log10) ([2]; 20000 nM) | level (log10) ([2]; 60000 nM) | level (log10) ([3]; 6700 nM) | level (log10) ([3]; 20000 nM) | level (log10) ([3]; 60000 nM) | level (log10) ([4]; 6700 nM) | level (log10) ([4]; 20000 nM) | level (log10) ([4]; 60000 nM) | level (log10) ([5]; 6700 nM) | level (log10) ([5]; 20000 nM) | level (log10) ([5]; 60000 nM) | level (log10) ([6]; 6700 nM) | level (log10) ([6]; 20000 nM) | level (log10) ([6]; 60000 nM) | level (log10) ([7]; 6700 nM) | level (log10) ([7]; 20000 nM) | level (log10) ([7]; 60000 nM) |
| --- | --- | --- | --- | --- | --- | --- | --- | --- | --- | --- | --- | --- | --- | --- | --- | --- | --- | --- | --- |
| BE3C:CD54/ICAM-1 | 0.023 ± 0.0071 | 0.004 ± 0.0085 | -0.0305 ± 0.0064 | -0.232 | 0.002 ± 0.0071 | -0.002 ± 0.017 | 0.0075 ± 0.025 | 0.0035 ± 0.0035 | 0.004 ± 0.013 | 0.0105 ± 0.011 | -0.01 ± 0.014 | -0.0085 ± 0.0021 | -0.0015 ± 0.015 | 0.009 ± 0.023 | -0.004 ± 0.034 | 0.005 ± 0.0014 | -0.01 ± 0.0042 | -0.0095 ± 0.013 | -0.0165 ± 0.011 |
| BE3C:CD87/uPAR | 0.02 ± 0.047 | -0.013 ± 0.011 | -0.042 ± 0.024 | -0.337 | -0.0055 ± 0.0021 | -0.009 ± 0.0028 | 0.011 ± 0.0085 | -0.0105 ± 0.019 | -0.011 | 0.0285 ± 0.011 | 0.0105 ± 0.022 | 0.0315 ± 0.0035 | 0.0125 ± 0.023 | -0.004 ± 0.0028 | 0.0075 ± 0.015 | 0.017 ± 0.027 | 0.0055 ± 0.023 | 0.0395 ± 0.012 | 0.0365 ± 0.016 |
| BE3C:CXCL8/IL-8 | -0.046 ± 0.011 | -0.078 ± 0.0099 | -0.098 ± 0.025 | -0.127 | 0.0585 ± 0.046 | 0.0345 ± 0.077 | 0.0555 ± 0.083 | 0.0225 ± 0.0078 | 0.016 ± 0.025 | 0.0525 ± 0.057 | 0.043 ± 0.021 | 0.0095 ± 0.039 | -0.066 ± 0.04 | 0.016 ± 0.042 | -0.008 ± 0.031 | 0.013 ± 0.058 | -0.0165 ± 0.016 | -0.012 ± 0.013 | -0.004 ± 0.024 |
| BE3C:CXCL9/MIG | -0.0045 ± 0.018 | -0.0105 ± 0.0021 | -0.0495 ± 0.0021 | -0.53 | 0.018 ± 0.011 | 0.007 ± 0.0099 | 0.0065 ± 0.022 | 0.006 ± 0.0085 | 0.002 ± 0.016 | 0.0165 ± 0.028 | 0.008 ± 0.011 | -0.003 ± 0.0042 | -0.003 ± 0.0028 | 0.003 ± 0.0085 | 0.0025 ± 0.0035 | 0.01 ± 0.0071 | 0.008 ± 0.0028 | 0.0055 ± 0.0078 | 0.0035 ± 0.0021 |
| BE3C:CXCL10/IP-10 | -0.009 ± 0.0099 | -0.0205 ± 0.013 | -0.19 ± 0.088 | -0.94 | 0.0325 ± 0.035 | 0.032 ± 0.028 | 0.0265 ± 0.043 | 0.008 ± 0.0099 | 0.0015 ± 0.0092 | 0.001 ± 0.021 | 0.0065 ± 0.015 | -0.0135 ± 0.00071 | -0.163 ± 0.061 | 0.0365 ± 0.029 | 0.0225 ± 0.04 | 0.0135 ± 0.035 | -0.01 ± 0.016 | 0 ± 0.0014 | -0.005 ± 0.0099 |
| BE3C:CXCL11/I-TAC | -0.003 ± 0.011 | -0.0145 ± 0.0078 | -0.149 ± 0.025 | -0.901 | 0.0285 ± 0.015 | 0.0105 ± 0.046 | 0.021 ± 0.031 | -0.001 ± 0.0014 | 0.0005 ± 0.0035 | 0.005 ± 0.0099 | 0.0095 ± 0.018 | 0.0125 ± 0.019 | -0.0295 ± 0.0035 | 0.0215 ± 0.03 | 0.0225 ± 0.005 | 0.017 ± 0.0085 | 0.0045 ± 0.00071 | 0.0085 ± 0.013 | -0.005 ± 0.0085 |
| BE3C:EGFR | -0.018 ± 0.0071 | -0.031 ± 0.0085 | -0.042 | -0.102 | 0.009 ± 0.0099 | 0.0015 ± 0.0021 | -0.0345 ± 0.0092 | 0.011 ± 0.047 | -0.0005 ± 0.046 | -0.0275 ± 0.063 | -0.006 ± 0.0028 | 0.001 ± 0.028 | -0.022 ± 0.013 | 0.0195 ± 0.03 | 0.0155 ± 0.029 | 0.012 ± 0.017 | -0.0025 ± 0.005 | 0.003 ± 0.0071 | -0.014 ± 0.023 |
| BE3C:HLA-DR | -0.01 ± 0.023 | -0.0495 ± 0.019 | -0.174 ± 0.022 | -0.517 | -0.0075 ± 0.013 | -0.016 ± 0.0057 | -0.007 ± 0.0071 | -0.0105 ± 0.0064 | 0 ± 0.0014 | -0.005 ± 0.0042 | -0.019 ± 0.0071 | -0.0325 ± 0.012 | -0.068 ± 0.017 | -0.0005 ± 0.015 | 0.006 ± 0.016 | 0.003 ± 0.035 | -0.0215 ± 0.029 | -0.01 ± 0.021 | -0.0305 ± 0.012 |
| BE3C:IL-1alpha | 0.0155 ± 0.03 | -0.0035 ± 0.015 | -0.022 ± 0.0099 | -0.026 | -0.014 ± 0.025 | -0.017 ± 0.0042 | 0.0025 ± 0.005 | 0.015 ± 0.017 | 0.024 ± 0.0042 | 0.045 ± 0.023 | -0.008 ± 0.024 | -0.019 ± 0.021 | -0.028 ± 0.011 | -0.003 ± 0.017 | -0.019 ± 0.0057 | -0.007 ± 0.011 | -0.01 ± 0.0085 | -0.021 ± 0.018 | -0.03 ± 0.021 |
| BF4T:CCL2/MCP-1 | -0.0265 ± 0.0092 | -0.0755 ± 0.05 | -0.273 ± 0.049 | -0.329 | -0.0225 ± 0.00071 | -0.009 ± 0.0028 | -0.0185 ± 0.005 | 0.013 ± 0.059 | 0.026 ± 0.065 | 0.0295 ± 0.13 | -0.0015 ± 0.013 | 0.0005 ± 0.036 | -0.016 ± 0.069 | 0.026 ± 0.0042 | 0.0355 ± 0.0021 | 0.0345 ± 0.022 | -0.015 ± 0.047 | -0.0035 ± 0.0035 | 0.0155 ± 0.026 |
| BF4T:CCL26/Eotaxin-3 | -0.029 ± 0.017 | -0.0415 ± 0.042 | -0.134 ± 0.0021 | -0.255 | 0.023 ± 0.031 | 0.017 ± 0.033 | 0.035 ± 0.045 | -0.032 ± 0.017 | -0.0525 ± 0.036 | -0.098 ± 0.073 | 0.004 ± 0.02 | -0.044 ± 0.025 | -0.086 | 0.032 ± 0.069 | 0.0385 ± 0.05 | 0.0235 ± 0.052 | -0.0095 ± 0.061 | -0.066 ± 0.078 | -0.084 ± 0.018 |
| BF4T:CD54/ICAM-1 | -0.007 ± 0.016 | -0.031 ± 0.02 | -0.091 ± 0.0071 | -0.138 | 0.0065 ± 0.0064 | -0.004 | 0.016 ± 0.017 | -0.0025 ± 0.0035 | -0.0095 ± 0.0021 | -0.002 ± 0.0057 | -0.009 ± 0.02 | -0.016 ± 0.0014 | -0.0415 ± 0.023 | -0.0025 ± 0.022 | -0.0085 ± 0.021 | -0.005 ± 0.023 | -0.0365 ± 0.033 | -0.0385 ± 0.049 | -0.0455 ± 0.019 |
| BF4T:CD90 | -0.0195 ± 0.018 | -0.051 ± 0.0014 | -0.071 ± 0.0099 | -0.018 | 0.0005 ± 0.013 | -0.002 ± 0.018 | -0.0035 ± 0.0035 | -0.011 ± 0.0085 | -0.018 ± 0.021 | -0.0075 ± 0.005 | -0.007 ± 0.0028 | -0.015 ± 0.0028 | -0.001 ± 0.0028 | 0 ± 0.0071 | -0.004 ± 0.0057 | -0.007 ± 0.0042 | -0.0085 ± 0.016 | 0.005 ± 0.0071 | -0.022 ± 0.0071 |
| BF4T:CD106/VCAM-1 | -0.014 ± 0.0099 | -0.012 ± 0.023 | -0.139 ± 0.037 | -0.145 | -0.0385 ± 0.039 | -0.022 ± 0.058 | -0.058 ± 0.0085 | -0.0245 ± 0.0021 | -0.044 ± 0.025 | -0.0065 ± 0.086 | -0.0315 ± 0.021 | -0.0315 ± 0.0064 | -0.032 ± 0.017 | 0.009 ± 0.013 | -0.021 ± 0.011 | -0.0245 ± 0.0035 | -0.007 ± 0.0071 | -0.0165 ± 0.04 | 0.0185 ± 0.066 |
